Reference: patent US20100249132A1, “IMIDAZOLE DERIVATIVES” (MERCK PATENT GESELLSCHAFT MIT BESCHRANKTER HAFTUNG, priority 2007, published 2010)

Target: T1, recombinant autotaxin (Homo sapiens, UniProt Q13822)
T1 construct: made in house; host or cells: Hi5 insect cells (baculovirus)
Assay: Autotaxin test (enzyme test), Amplex Red fluorescence
Assay type: biochemical
Details: substrate LPC 75 μM, Amplex Red detection, read-out: IC50 (autotaxin inhibition, enzyme test)
In short: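 Recombinant human autotaxin from baculovirus/Hi5 (16 ng) was preincubated with compound 30 min at 22 °C. Reaction with 75 μM egg LPC ran 90 min at 37 °C. Released choline was coupled via alkaline phosphatase, choline oxidase and HRP to Amplex Red, read as resorufin fluorescence (ex485/em612) in kinetic mode.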

SMILES	IC50 [µM]
CCCCc1ccc(NC(=O)Nc2[nH]c(Cc3ccc(C(=O)N4CCCCC4)o3)nc2C(N)=O)cc1 [Compound A88, 5-[3-(4-Butylphenyl)ureido]-2-[5-(piperidine-1-carbonyl)furan-2-ylmethyl]-1H-imidazole-4-carboxamide]	> 10
CCCCc1ccc(NC(=O)Nc2[nH]c(Cc3ccc(C(=O)N(C)CCC)o3)nc2C(N)=O)cc1 [Compound A90, 5-[3-(4-Butylphenyl)ureido]-2-[5-(methylpropyl-carbamoyl)furan-2-ylmethyl]-1H-imidazole-4-carboxamide]	> 10
CCCCc1ccc(NC(=O)Nc2[nH]c(Cc3ccc(C(=O)N4CCC(CCO)CC4)o3)nc2C(N)=O)cc1 [Compound A91, 5-[3-(4-Butylphenyl)ureido]-2-{5-[4-(2-hydroxy-ethyl)piperidine-1-carbonyl]furan-2-ylmethyl}-1H-imidazole-4-carboxamide]	1 to 10
CC(C)c1ccccc1NC(=O)Nc1[nH]c(Cc2ccc(C(=O)O)cc2)nc1C(N)=O [Compound A92, 4-{4-Carbamoyl-5-[3-(2-isopropylphenyl)ureido]-1H-imidazol-2-ylmethyl}benzoic acid]	> 10
NC(=O)c1nc(Cc2ccc(C(=O)O)cc2)[nH]c1NC(=O)Nc1ccc(OC(F)(F)F)cc1 [Compound A93, 4-{4-Carbamoyl-5-[3-(4-trifluoromethoxyphenyl)-ureido]-1H-imidazol-2-ylmethyl}benzoic acid]	1 to 10
CCCCc1ccc(NC(=O)Nc2[nH]c(Cc3ccc(C(=O)N4CCOCC4)cc3)nc2C(N)=O)cc1 [Compound A94, 5-[3-(4-Butylphenyl)ureido]-2-[4-(morpholine-4-carbonyl)benzyl]-1H-imidazole-4-carboxamide]	1 to 10
CCCCOc1ccc(NC(=O)Nc2[nH]c(Cc3ccc(O)cc3)nc2C(N)=O)cc1 [Compound A95, 5-[3-(4-Butoxyphenyl)ureido]-2-(4-hydroxy-benzyl)-1H-imidazole-4-carboxamides]	> 10
NC(=O)c1nc(Cc2ccc([N+](=O)[O-])cc2)[nH]c1NC(=O)Nc1ccc(C(F)(F)F)cc1 [Compound A96, 2-(4-Nitrobenzyl)-5-[3-(4-trifluoromethylphenyl)-ureido]-1H-imidazole-4-carboxamide]	> 10
NC(=O)c1nc(Cc2ccc(N)cc2)[nH]c1NC(=O)Nc1ccc(C(F)(F)F)cc1 [Compound A97, 2-(4-aminobenzyl)-5-[3-(4-trifluoromethylphenyl)-ureido]-1H-imidazole-4-carboxamide]	1 to 10
COC(=O)c1ccc(Cc2nc(C(N)=O)c(NC(=O)Nc3ccc(C(F)(F)F)cc3)[nH]2)cc1 [Compound A98, Methyl 4-{4-carbamoyl-5-[3-(4-trifluoromethyl-phenyl)ureido]-1H-imidazol-2-ylmethyl}benzoate]	> 10
COC(=O)c1ccc(Cc2nc(C(N)=O)c(NC(=O)Nc3ccc(OC(F)(F)F)cc3)[nH]2)cc1 [Compound A99, Methyl 4-{4-carbamoyl-5-[3-(4-trifluoromethoxy-phenyl)ureido]-1H-imidazol-2-ylmethyl}benzoate]	> 10
CCCCOc1ccc(NC(=O)Nc2[nH]c(Cc3ccc(CO)cc3)nc2C(N)=O)cc1 [Compound A100, 5-[3-(4-butoxyphenyl)ureido]-2-(4-hydroxy-methylbenzyl)-1H-imidazole-4-carboxamide]	> 10
Cc1oc(-c2ccccc2)cc1NC(=O)Nc1[nH]c(Cc2ccc(C(=O)O)cc2)nc1C(N)=O [Compound A101, 4-{4-Carbamoyl-5-[3-(2-methyl-5-phenylfuran-3-yl)ureido]-1H-imidazol-2-ylmethyl}benzoic acid]	> 10
NC(=O)c1nc(Cc2ccc(C(=O)O)cc2)[nH]c1NC(=O)Nc1cccs1 [Compound A102, 4-[4-Carbamoyl-5-(3-thiophen-2-ylureido)-1H-imidazol-2-ylmethyl]benzoic acid]	1 to 10
NC(=O)c1nc(Cc2ccc(C(=O)NCCc3c[nH]cn3)cc2)[nH]c1NC(=O)Nc1ccc(C(F)(F)F)cc1 [Compound A103, 2-{4-[2-(1H-Imidazol-4-yl)ethylcarbamoyl]benzyl}-5-[3-(4-trifluoromethylphenyl)ureido]-1H-imidazole-4-carboxamide]	> 10
CC(C)(CCc1nc(C(N)=O)c(NC(=O)Nc2ccc(Cl)cc2)[nH]1)C(=O)O [Compound B75]	> 10
NC(=O)c1nc(CCCCN2C(=O)c3ccccc3C2=O)[nH]c1NC(=O)Nc1ccc(Cl)cc1 [Compound B77]	> 10
NC(=O)c1nc(CN2C(=O)c3ccccc3C2=O)[nH]c1NC(=O)Nc1ccc(Cl)cc1 [Compound B78]	> 10
NC(=O)c1nc(CCC(=O)Nc2ccc3[nH]c(=O)oc3c2)[nH]c1NC(=O)Nc1ccc(Cl)cc1 [Compound B79]	> 10
NC(=O)c1nc(CCC(=O)Nc2ccc3[nH]nnc3c2)[nH]c1NC(=O)Nc1ccc(Cl)cc1 [Compound B80]	> 10
NC(=O)c1nc(Cc2ccc(OCC(=O)O)cc2)[nH]c1NC(=O)c1cc(-c2ccc(Cl)cc2)n[nH]1 [Compound B82]	> 10
